# Laboratory results taken from ChEMBL document CHEMBL1157539, “Thousands of chemical starting points for antimalarial lead identification” (Nature, 2010).
# Tested on: Plasmodium falciparum
# Test: GSK_TCMDC: Inhibition of Plasmodium falciparum 3D7 in whole erythrocytes, using parasite LDH activity as an index of growth.
# Type: functional, organism-based
# Conditions: Plasmodium falciparum, 3D7
row,Compound,XC50 [nM]
1,CCOC(=O)c1ccc(N(CCCN(CCCN(c2ccc(C(=O)OCC)cc2)S(=O)(=O)c2ccc(C)cc2)CCc2ccc(O)cc2)S(=O)(=O)c2ccc(C)cc2)cc1,1050
2,OC(CN1CCN(C2CCCCC2)CC1)Cn1c2ccccc2c2cc(Br)ccc21 (stereo unspecified),857
3,CS(=O)(=O)Cc1ccc(Nc2nccc(-c3c(-c4cccc(NC(=O)c5c(F)cccc5F)c4)nn4ccccc34)n2)cc1,150
4,Cc1ccccc1CNc1ccc2nc(N)nc(N)c2c1,171
5,COc1ccc2nccc([C@@H](O)CN3CCC(NC(=O)c4cc5c(Cl)cc(Cl)cc5[nH]4)CC3)c2c1,233
6,ON=C1c2cc(OCCN3CCCCC3)c(Cl)cc2-c2cc(Cl)c(OCCN3CCCCC3)cc21,703
7,Cn1cncc1-c1ccc2ncnc(Nc3ccc(OCc4ccccc4)cc3)c2c1,1340
8,O=C(c1cccs1)N(Cc1cccc(-c2ccc(CNCCc3ccccc3)cc2)c1)C1CCN(Cc2ccccc2)CC1,860
9,CCc1ccc(-c2nc3cc(NC(=O)c4cc([N+](=O)[O-])cc([N+](=O)[O-])c4)ccc3o2)cc1,932
10,Cc1c(NCCCNCc2cc(Cl)cc(Cl)c2Cl)[nH]c2ccccc2c1=O,314
11,CC(C)CN(C)c1ncnc2c1nc(-c1cncc(C#N)c1)n2CCNCc1ccccc1,1360
12,Cc1ncsc1CCN1C(=O)CC2(C1=O)C(=O)N(Cc1ccccc1)c1ccc(Cl)cc12 (stereo unspecified),984
13,Cc1ccc(-c2ccc3c(c2)C=C(C(=O)NC2CCN(CCNC(=O)c4cccs4)CC2)CCC3)cc1,227
14,COc1ccc(Nc2nccc(N3CCC(NC(=O)c4cccc(C#N)c4)C3)n2)cc1 (stereo unspecified),819
15,O=C(Nc1ccc(Br)cc1)N1CCC(n2c(-c3ccccc3)nc3cccnc32)CC1,763
16,O=C(/C=C/c1ccc(Cl)c(Cl)c1)NCCCCCN1CCCC(CCCNC(=O)Nc2ccc(C(F)(F)F)cc2)C1 (stereo unspecified),525
17,COc1ccc(CN2CCCC(C(=O)c3ccc(C(F)(F)F)cc3)C2)c(O)c1 (stereo unspecified),849
18,COc1ccccc1C1CCN(C2CCC(NC(=O)/C=C/c3cc(F)c(F)cc3F)CC2)CC1 (stereo unspecified),1600
19,CCOc1cc(C=Cc2nc(O)c3ccccc3n2)cc(Cl)c1O,1180
20,CN1CCN(CCCN(Cc2csc(-c3ccc(CNCc4ccccc4)cc3)n2)S(=O)(=O)c2ccccc2)CC1,773
21,O=C(NC1CCCCCC1)C1CCCN(C(=O)c2ccc(O)c(-c3ccc(Cl)c(Cl)c3)c2)C1 (stereo unspecified),763
22,COc1ccc(NC(=O)/C=C/c2ccccc2Cl)cc1OCCN1CCN(c2ccncc2)CC1,728
23,Cc1cc(O)c(CN(C)Cc2ccc3c(c2)OCCO3)cc1C(C)C,672
24,CN(C)CCC1CCN(CCS(=O)(=O)c2cccc(Nc3ccc(-c4cccc(F)c4)cn3)c2)CC1,1070

row,Compound,XC50 [nM]
1,COc1ccc(-c2ccc(NC(=O)c3cccc(C#N)c3)cc2)cc1CN1CCC(O)CC1,821
2,c1cncc(NCc2ccc(-c3cc4ccncc4cc3OC3CCNCC3)s2)c1,981
3,Cc1cnc(NCCc2ccc(F)cc2)nc1NCCC(=O)Nc1ccccc1,946
4,CNC(=O)c1ccc2[nH]cc(C3CCN(CC4CCN(C(=O)/C=C/c5ccc(Cl)c(Cl)c5)CC4)CC3)c2c1,1520
5,Cc1ccc(CN2CCCN(Cc3cccc(NC(=O)c4cc5ccccc5s4)c3)CC2)cc1C,735
6,Fc1cc(Cl)ccc1Nc1ccnc2cc(I)ccc12,1130
7,CN1CCc2ccc(NC(=O)Nc3ccc(-c4ccccc4)cc3)cc2C1,511
8,CCN(CC)CCN(Cc1ccc(-c2ccc(C(F)(F)F)cc2)cc1)C(=O)Cn1c(CCc2cc(F)ccc2F)nc(=O)c2ccccc21,828
9,COC(=O)c1cccc(CNCc2cccc(-c3cccc(-c4nc5cc(C(F)(F)F)ccc5[nH]4)c3)c2)c1,172
10,CCCc1cn2c3c(cc(C(=O)N[C@@H](Cc4ccccc4)[C@H](O)CNC4CCOCC4)cc13)N(C)S(=O)(=O)CC2,47.7
11,CN(C)CCCOc1ccc(-c2nc(-c3ccc4c(c3)CCC4=NO)c(-c3ccncc3)[nH]2)cc1,832
12,COc1ccc2nc(C)cc(Nc3ccc(Cl)cc3)c2c1,946
13,Oc1ccc(CCNc2nc(NCCCOc3ccccc3-c3ccc(F)cc3)nc(N3CCNCC3)n2)cc1,1080
14,Nc1nc(F)nc2nc[nH]c12,432
15,COc1cc2nc(N3CCC(CNC(=O)c4ccc(-c5ccc(O)cc5)cc4)CC3)nc(N)c2cc1OC,175
16,CC1(C)[C@H]2CC[C@@H](CNc3nc(NCC(=O)Nc4ccc5ccccc5c4)nc(N4CCC(N5CCCC5)CC4)n3)[C@@H]1C2,1190
17,CN1CCN(CC(=O)Nc2ccc(-c3ccc(-c4nc5ccccc5[nH]4)cc3)cc2)CC1,696
18,N#Cc1ccc2[nH]c(-c3ccccc3)nc2c1,698
19,CN1CCC(C(=O)Nc2cccc(-c3cccc(-c4nc5cc(F)ccc5[nH]4)c3)c2)CC1,695
20,COC(=O)c1ccccc1N1CCN(CCCCNC(=O)c2ccc(NC(=O)c3cc(Cl)cc(Cl)c3)cc2)CC1,558
21,O=C(NCC1CCC(C(=O)NCc2cccc(C(F)(F)F)c2)CC1)c1ccc(O)c(-c2ccc(Cl)c(Cl)c2)c1 (stereo unspecified),711
22,CC(C)(C(=O)Nc1ccc(C2CCC(NCC3CC3)CC2)c(Cl)c1)c1ccc(C(F)(F)F)cc1 (stereo unspecified),965
23,c1cc(CN2CCC(CCN3CCCCC3)CC2)cc(-c2csc(-c3nc4ccccc4[nH]3)c2)c1,142
24,Cc1cc(=O)c(-c2ccc(Oc3ccc(C(F)(F)F)cc3)cc2)c(C)n1O,604

row,Compound,XC50 [nM]
1,CCc1c[nH]c2c(N3CCCC3=O)cc(C(=O)N[C@@H](Cc3ccccc3)[C@H](O)CNC(C)(C)CCCC(C)C)cc12,511
2,Cc1cc(NC(=O)c2cccs2)ccc1OC1CCN(Cc2ccc(F)cc2)CC1,481
3,O=C(Nc1ccc(-c2cccc(-c3nc4cc(F)ccc4[nH]3)c2)cc1)Nc1ccc(F)c(F)c1F,739
4,CN(C)CCOc1ccc(-c2cc(-c3ccncc3)c(-c3ccc(Cl)c(O)c3)o2)cc1,214
5,CC(Cc1ccc(OCc2ccccc2)c(Cl)c1)NCC(O)c1cccc(C(F)(F)F)c1 (stereo unspecified),940
6,O=C(Nc1ccc(F)cc1)N1CCCN(c2ccnc3cc(Cl)ccc23)CC1,785
7,Cc1cc(-c2ncc[nH]2)ccc1-c1ccc(C(=O)N2CCc3cc4c(cc32)C2(CCN(C)CC2)CO4)cc1,800
8,COc1ccc2c(NN=Cc3ccc(N(C)C)cc3)ccnc2c1,663
9,COc1cc(-c2cc(-c3ccc(OCCN(C)C)cc3)[nH]c2-c2ccncc2)ccc1Cl,711
10,CC1CN(c2nc(NCCc3ccc(O)cc3)nc(NCc3ccccc3-c3ccc(C(F)(F)F)cc3)n2)CC(C)N1 (stereo unspecified),529
11,CCCOc1c(CCNCCCCNCCc2ccc3ccccc3c2OCCC)ccc2ccccc12,482
12,OC(CNCc1ccccc1Oc1ccccc1)c1cc(Br)cs1 (stereo unspecified),1110
13,N#Cc1ccc(N(CCOC(=O)c2ccccc2)Cc2ccccc2C(F)(F)F)cc1C(F)(F)F,921
14,CCCCn1c(Sc2ccc(C#N)c([N+](=O)[O-])c2)nnc1-c1ccc(OC)cc1,1030
15,COc1ccc(CNC(=O)Nc2cc3cc(-c4ccc(CN5CCCC5)cc4)ccc3n3c(C)nnc23)cc1,654
16,CCOC(=O)c1c(C)n(C2CCCCC2)c2cc(Br)c(O)cc12,815
17,COc1cccc(NC(=O)NC2CCN(CCCCCNC(=O)/C=C/c3ccc(Cl)c(Cl)c3)CC2)c1,777
18,CCCCOc1cc(CNCCCCCCNCc2cc(OCCCC)cc3ccccc23)c2ccccc2c1,736
19,CCCc1cc2c3c(N)nc(N)nc3ccc2n1CC,47.7
20,CN1CCC(NCc2ccc(-c3ccc(S(=O)(=O)NCc4ccccc4)s3)cc2)CC1,765
21,COc1cc(Cn2ccc3c4c(N)nc(N)nc4ccc32)cc(OC)c1OC,9.34
22,CCCc1cc2c3c(N)nc(N)nc3ccc2n1C(CC)CC,3.2
23,O=C(/C=C/c1ccc(Cl)cc1Cl)N1CCC(CCN2CCC(c3c[nH]c4ccccc34)CC2)CC1,796
24,COc1cccc2c(NN=Cc3cccc(Cl)c3)cc(C)nc12,709

row,Compound,XC50 [nM]
1,CCCCCC(C)C(C)c1cc(O)c2c(c1)OC1(C(C)C)CC(O)C(C)C2C1 (stereo unspecified),985
2,CNC(=O)CSc1nnc(-c2ccc(C)cc2)c(-c2ccc(C)cc2)n1,600
3,CC(C)c1ccc(CN(C)CCCCNC(=O)c2ccc(NC(=O)c3ccc(Cl)cc3)cc2)cc1,994
4,COc1ccc(CN(C)CCOc2ccc(NC(=O)c3cccc4c(=O)c5cc(SC)ccc5[nH]c34)cc2)cc1OC,877
5,CCCN(CCC)CCCN(CCCN(CCC)CCC)c1cc(C)nc(Nc2ccc(Cl)cc2)n1,168
6,CC(=O)c1ccc2c(c1)C(NC(=O)c1cccc(Cl)c1Cl)C(CO)C(C)(C)O2 (stereo unspecified),687
7,COCC(=O)N(Cc1cccc(-c2ccc(CNCCc3ccccc3)cc2)c1)C1CCN(Cc2ccccc2)CC1,1100
8,COCCCNC(=O)[C@H]1CNCCN1C(=O)c1ccccc1,802
9,COc1cc(C=C(C2=NC(=O)CS2)c2nc3cccnc3n2C)ccc1O,1000
10,O=S(=O)(NCCN1CCCC1)c1ccc(-c2ccc(CNCc3ccc(F)cc3)cc2)cc1F,1280
11,Cc1cc(Cl)c(Cl)cc1NC(=O)Nc1cccc(C(F)(F)F)c1,873
12,COc1ccc(OCCCCON2C(=N)N=C(N)NC2(C)C)cc1,3.2
13,CN(C)Cc1ccc(-c2cccc(NC(=O)c3cccc(Cl)c3)c2)cc1,693
14,O=C(NCc1ccccc1)c1nn(CCCN2CCC(N3CCCC3)CC2)cc1-c1ccc(Cl)c(Cl)c1,675
15,CCCCCCCN1CC[C@@H](CCC(O)c2ccnc3ccc(OC)cc23)[C@@H](CC)C1 (stereo partly specified),754
16,Cc1ccc(CNC(=O)[C@H](Cc2ccccc2)Nc2cc(C)nc(NCCc3ccc(F)cc3)n2)cc1,980
17,Cc1cccc2nc(-c3ccc(-c4cccc(NC(=O)Nc5ccsc5)c4)cc3)[nH]c12,799
18,CN(C)CCNc1ncnc2c1[nH]c1ccc(Cl)cc12,601
19,CCC1(CC)NC(N)=NC(=N)N1OCc1ccc(Cl)c(Cl)c1,58.5
20,Cc1cccc(CC2CC(=O)N(c3ccc([N+](=O)[O-])cc3)C2=O)c1 (stereo unspecified),200
21,CCNc1cc(C)nc(Nc2ccc(NC(=O)c3ccccc3Cl)cc2)n1,1010
22,O=C(NCCc1ccccc1)N(Cc1ccc(-c2cccc(CN3CCNCC3)c2)cc1)C1CCN(Cc2ccccc2)CC1,1360
23,COc1cc2c(cc1S(=O)(=O)c1ccc(NC(=O)c3ccc4ccccc4c3)cc1)CCN(C)CC2,797
24,COc1ccc2ncc(Cl)c([C@@H](O)CN3CCC(NCc4cc5c(cn4)OCCO5)CC3)c2c1,59.5
